From article PMC11162475, “Rule-based omics mining reveals antimicrobial macrocyclic peptides against drug-resistant clinical isolates” (Nature Communications, 2024)
In brackets after ≈: the same amount, converted by molar mass.

Legend:
S. aureus ATCC 25923 [1] = system: S. aureus ATCC 25923
Protocol: was used as a negative control.
Experiments were performed in triplicate.
The experiment was performed in triplicate.

LREfa 20-1 = test: microbe, parasite or virus in culture; assay type: cell-based, Enterococcus faecalis; settings: 20 h
Protocol: (§1) For MIC determination, Staphylococcus aureus ATCC25923, Bacillus subtilis 168, Micrococcus luteus DSM1790, Enterococcus faecalis OG1RF, Enterococcus faecium MCC2763, Escherichia coli DH5α and Pseudomonas aeruginosa PAO1 were used as indicator strains. Nisin and vancomycin were used as positive controls. A dilution series of massatide A, massatide B, vancomycin (16, 8, 4, 2, 1, 0.5, 0.25, 0.125, 0.0625, 0.0313 μg/mL) and sistertide A1, kebanetide A1, kebanetide A2, nisin (64, 32, 16, 8, 4, 2, 1, 0.5, 0.25, 0.125 μg/mL) were prepared in 96-well plate from 1–10th column. The indicator strains were added to the compound-containing well. The indicator strain culture with no antibiotics was prepared in the 11th column. The 12th column was filled with 200 μL empty MHB medium. The 96-well plate was incubated at 37 °C for 20 h (30 °C for M. luteus and B. subtilis). The OD600 was detected on MULTISKAN Sky (Thermo Scientific) and MIC values were determined. The MIC values of clinical isolates were determined by Sichuan Primed Shines Bio-tech Co., Ltd. (China) following similar protocol. Levofloxacin was used as a positive control.

VREfa ATCC51575 = test: microbe, parasite or virus in culture; assay type: cell-based, Enterococcus faecalis; settings: ATCC51575, 20 h
Protocol: as §1

[2] = Thermal stability of massatide A
Protocol: Thermal stability of massatide A
A solution of Massatide A (3.2 mg/mL) was prepared in 1.5 mL Eppendorf tube. These
tubes were then incubated at 50 °C and 70 °C in a dry bath for 72 hours. After incubation,
(§2) 1 μ L samples were taken and diluted with water for UPLC -LRMS analysis. […]

S. aureus ATCC 25923 [3] = test: Lysis of S. aureus culture; assay type: cell-based, Staphylococcus aureus; settings: S. aureus ATCC 25923 culture OD600 1.0, 10×MIC, 24 h
Protocol: Growth kinetics of S. aureus
Massatide A or B was prepared in a 96-well plate at the concentration of 8×MIC, 4×MIC, 2×MIC, 1×MIC and 0.5×MIC , respectively. The MHB medium with no compound was used as a control. Then, the overnight culture of S. aureus ATCC 25923 cells was added to the medium at 1:1,000. The plate was incubated with shaking in SpectraMax iD3 (MOLECULAR DEVICES) at 30 ℃. OD600 was measured every 30 min for 36 hours. To analyze the lysis, 1mL of S. aureus ATCC 25923 culture (OD600 1.0) was treated with massatide A or vancomycin (10×MIC) for 24h. An untreated sample was used as a negative control. […]
Experiments were performed in triplicate. […]

chymotrypsin = settings: 32 μg/mL in H2O, protease 100:1 (w:w), 37 °C, 4 h, 8 h and 12 h, UPLC-LRMS
Protocol: Protease stability of massatide A
We selected TEV protease, Endoproteinase AspN, Endoproteinase GluC, trypsin, and chymotrypsin to evaluate the stability of massatide A. The protease digestion assay was conducted as follows: (i) Stock solution of massatide A (3.2 mg/mL in DMSO) was diluted in H2O with final concentration of 32 μg/mL, (ii) each protease was added with 100:1 (w:w) ratio and incubated under corresponding temperature, i.e., 37 °C for TEV protease, trypsin, and chymotrypsin and 30 °C for Endoproteinase AspN and […]
Endoproteinase GluC. […]
as §2

[4] = system: Acinetobacter baumannii 20-1; test: microbe, parasite or virus in culture; assay type: cell-based; settings: 20-1, 20 h
Method in brief: (§3)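 Broth microdilution in MHB, run for these clinical isolates by an external lab with a similar protocol: twofold dilutions (16–0.0313 μg/mL for massatides; 64–0.125 μg/mL for sistertide A1, kebanetides), 37 °C for 20 h, growth read as OD600 to give the MIC. Levofloxacin served as positive control.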

[5] = system: Micrococcus luteus DSM1790; test: microbe, parasite or virus in culture; assay type: cell-based; settings: DSM1790, 20 h
[6] = system: Staphylococcus aureus ATCC25923; test: microbe, parasite or virus in culture; assay type: cell-based; settings: ATCC25923, 20 h
Method in brief: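 Broth microdilution in MHB with two-fold compound series, 37 °C for 20 h; growth read by OD600 to give MIC. Clinical isolates tested externally by a similar protocol.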

[7] = system: Klebsiella pneumoniae 15-1; test: microbe, parasite or virus in culture; assay type: cell-based; settings: 15-1, 20 h
Method in brief: as §3

[8] = system: Acinetobacter baumannii 20-2; test: microbe, parasite or virus in culture; assay type: cell-based; settings: 20-2, 20 h
Method in brief: as §3

Bacillus subtilis 168 = test: microbe, parasite or virus in culture; assay type: cell-based; settings: 168, 20 h
MRSA ATCC33591 = test: microbe, parasite or virus in culture; assay type: cell-based, Staphylococcus aureus; settings: ATCC33591, 20 h
Protocol: as §1

MRSA 15-1 = test: microbe, parasite or virus in culture; assay type: cell-based, Staphylococcus aureus; settings: 15-1, 20 h
Protocol: as §1

VMSA ATCC700788 = test: microbe, parasite or virus in culture; assay type: cell-based, Staphylococcus aureus; settings: ATCC700788, 20 h
Protocol: as §1

VMSA ATCC700699 = test: microbe, parasite or virus in culture; assay type: cell-based, Staphylococcus aureus; settings: ATCC700699, 20 h
Protocol: as §1

LRSA 20-1 = test: microbe, parasite or virus in culture; assay type: cell-based, Staphylococcus aureus; settings: 20 h
Protocol: as §1

MRSA ATCC43300 = test: microbe, parasite or virus in culture; assay type: cell-based, Staphylococcus aureus; settings: ATCC43300, 20 h
Protocol: as §1

For `C/C=C1\NC(=O)C(N(C)C)C(C)SC[C@@H](C(=O)N[C@H](CC)C(=O)N[C@H](C(=O)N[C@@H](C)C(=O)N[C@H](C)C(=O)N[C@@H](Cc2ccccc2)C(=O)N[C@@H](C)C(=O)NC2C(=O)NCC(=O)N[C@@H](Cc3ccc(O)cc3)C(=O)N[C@@H](Cc3ccccc3)C(=O)N[C@H](C)C(=O)N/C=C\SC2C)C(C)C)NC(=O)[C@@H]2CCCN2C(=O)[C@H](C(C)C)NC1=O` (stereo partly drawn) [Massatide A (1), massatide A], the “MIC to S. aureus after serial passaging” value (S. aureus ATCC 25923 [1]; 25 days of serial passaging in subinhibitory concentrations, triplicate) was 4 mg/L (≈ 2.45 µM), the “change in MIC during serial passaging” value (S. aureus ATCC 25923 [1]; subsequent 19 days after day 6) was “No significant change in MIC” and the MIC (LREfa 20-1) was 4 mg/L (≈ 2.45 µM). For the same compound, the MIC (VREfa ATCC51575) was 4 mg/L (≈ 2.45 µM), the “stability under high temperatures” value ([2]; 3.2 mg/mL, 50 °C and 70 °C, dry bath, 72 hours, UPLC-LRMS) was “highly stable” and the “changes in retention time or m/z after incubation” value ([2]; 72 h incubation under 70 ℃, 3.2 mg/mL, UPLC-LRMS) was “No changes”. For the same compound, the “changes in bioactivity after incubation” value ([2]; time-course activity analysis, incubation at 50 ℃ and 70 ℃ up to 72 h) was “no obvious changes”, the “lysis of the cell culture” value (S. aureus ATCC 25923 [3]) was “did not result in lysis” and the protease stability (chymotrypsin) was “resistant”. It also gave an MIC [4] of 64 mg/L (≈ 39.1 µM), an MIC [5] of 0.06 mg/L (≈ 0.0367 µM) and an MIC [6] of 0.5 mg/L (≈ 0.306 µM). The MIC [7] was over 64 mg/L, the MIC [8] was 64 mg/L (≈ 39.1 µM) and the MIC (Bacillus subtilis 168) was 2 mg/L (≈ 1.22 µM). It also gave an MIC (MRSA ATCC33591) of 1 mg/L (≈ 0.612 µM), an MIC (MRSA 15-1) of 2 mg/L (≈ 1.22 µM) and an MIC (VMSA ATCC700788) of 4 mg/L (≈ 2.45 µM). It also gave an MIC (VMSA ATCC700699) of 4 mg/L (≈ 2.45 µM), an MIC (LRSA 20-1) of 0.25 mg/L (≈ 0.153 µM) and an MIC (MRSA ATCC43300) of 0.25 mg/L (≈ 0.153 µM).
